The values that follow come from patent US11213508B2, “Compositions comprising urolithins and uses thereof for the stimulation of insulin secretion” (Centre National de la Recherche Scientifique (CNRS), priority 2013, dated 2022).

In assay [1] the test system is INS-1 insulin-secreting β-cells. The experiment in a line: Glucose (8.3 mmol·L^−1)-stimulated insulin secretion in INS-1 cells (HTRF insulin assay). Format: cell-based. As to conditions: 8.3 mmol·L^−1 glucose; for activity at 2 µM / activity at 20 µM: Rattus norvegicus, INS1, 1 h, read-out: % control response (glucose-stimulated insulin secretion); for activity at 2 µM / activity at 20 µM / % control response (glucose-stimulated insulin secretion): control = glucose alone. The protocol:
Cells were seeded in 24-well plates (4×10^5 cells per well) and were used for experiments after 5 days of culture.
(§1) Cells were incubated for 1 h (5% CO2, 37° C.) in KRB medium containing 8.3 mmol·L^−1 glucose (glucose-stimulated secretion) in the presence or absence of the compounds tested. At the end of the 1 h incubation period, the medium was sampled and stored at −20° C. until the insulin assay. Insulin concentration in cell supernatants was determined using the homogeneous time resolved fluorescence technology (HTRF), according to the manufacturer's instructions (HTRF insulin assay kit, Cisbio International, Bagnols-sur-Ceze, France). Briefly, two anti-insulin antibodies were used; one labelled with Eu^3+-Cryptate and one labelled with XL665 recognizing distinct epitopes. When these two fluorophores bind to insulin molecules, the two antibodies come into close proximity, allowing fluorescence resonance energy transfer (FRET) to occur between the Eu^3+-Cryptate and the XL665. This FRET increases proportionally with the insulin concentrations. All the experiments were performed at least in quadruplicate.
For the determination of insulin secretion, cells were incubated for 1 h (5% CO2, 37° C.) in KRB medium containing either 1.4 mmol·L^−1 glucose (low-glucose) or 8.3 mmol·L^−1 glucose (glucose-stimulated secretion) in the presence or absence of the compounds tested. At the end of the 1 h incubation period, mediums were sampled and stored at −20° C. until the insulin assay.
(Time-resolved FRET reads energy transfer from a long-lived donor to a nearby acceptor.)

Assay [2] shares this test system. Particulars: Youl et al., 2010; cited from earlier work.
Assay [3] has the same test system. The experiment in a line: Glibenclamide-stimulated insulin secretion in INS-1 cells. Format: cell-based. Particulars: glibenclamide 0.01 μmol·L^−1. The protocol:
The insulin-secreting cell line INS-1 (a gift from Professor C. B. Wollheim) was cultured in RPMI-1640, supplemented with 10% fetal calf serum (FCS), 100 U·mL^−1 penicillin, 100 μg·mL^−1 streptomycin, 2 mmol·L^−1 L-glutamine, 10 mmol·L^−1 HEPES, 1 mmol·L^−1 sodium pyruvate, and […] 2-mercaptoethanol, as previously described by Youl et al. (2010). Cells were seeded in 24-well plates (4×10^5 cells per well) and were used for experiments after 5 days of culture.
as §1, with “Before the treatment, RPMI medium was removed and the cells were washed twice with HEPES-balanced Krebs-Ringer bicarbonate buffer (KRB) containing (in mmol·L^−1): 123 NaCl, 5.4 KCl, 1.3 KH2PO4, 2.7 MgSO4, 2.9 CaCl2, 5 NaHCO3 and 20 HEPES, pH 7.5, with 2 g·L^−1 bovine serum albumin (KRB/BSA). Cells” for “Cells”
Material and methods were the same as described in example 1. For the determination of insulin secretion, cells were incubated for 1 h (5% CO2, 37° C.) in KRB medium containing 1.4 mmol·L^−1 glucose (low-glucose condition) and 0.01 μmol·L^−1 glibenclamide (glibenclamide-stimulated secretion), in the presence or absence of urolithins. At the end of the 1 h incubation period, the medium was sampled and stored at −20° C. until the insulin assay. Insulin concentration in cell supernatants was determined as described in Example 1.

Where “and” joins values, the source holds several entries; their conditions need not be identical. Equal values may be shown once.

For the compound `O=C(O)Cc1ccc(O)c(O)c1` [3,4-dihydroxyphenylacetic acid], in assay [1] (compound 2 μM), the activity at 2 µM amounted to 105%. For the same compound, the activity at 20 µM in assay [1] (compound 20 μM) was 84%.

In the case of `O=C(O)CCc1cccc(O)c1` [3-(3′-hydroxyphenyl)propionic acid], the activity at 2 µM in assay [1] (compound 2 μM) amounted to 98%. In assay [1] (compound 20 μM), the activity at 20 µM is 103%.

As to `O=C(O)C(O)Cc1ccc(O)cc1` (stereo not drawn) [3-(4′-hydroxyphenyl)lactic acid], in assay [1] (compound 2 μM), the activity at 2 µM came out at 97%. Besides, the activity at 20 µM in assay [1] (compound 20 μM) stood at 79%.

Take `COc1cc(C(=O)O)cc(O)c1O` [3-O-Methylgallic acid]: the activity at 2 µM in assay [1] (compound 2 μM) was found to be 93%. Moreover, the activity at 20 µM in assay [1] (compound 20 μM) stood at 105%.

In the case of `O=C(O)Cc1cccc(O)c1` [3-hydroxyphenylacetic acid], the activity at 2 µM in assay [1] (compound 2 μM) was 98%. The activity at 20 µM in assay [1] (compound 20 μM) turned out to be 104%.

In the case of `COc1c(O)cc(C(=O)O)cc1O` [4-O-Methylgallic acid], the activity at 2 µM in assay [1] (compound 2 μM) amounted to 104%. The activity at 20 µM in assay [1] (compound 20 μM) is 86%.

`O=C(O)c1ccc(O)cc1` [4-hydroxybenzoic acid]: the activity at 2 µM in assay [1] (compound 2 μM) amounted to 96%. In assay [1] (compound 20 μM), the activity at 20 µM turned out to be 98%.

Consider `O=C(O)CNC(=O)c1ccc(O)cc1` [4′-hydroxyhippuric acid], for which the “% control response (glucose-stimulated insulin secretion)” value (“% control response” below) was determined as 98.00% in assay [1] (compound 2 μM) and 111.00% in assay [1] (compound 20 μM).

For `O=C(O)Cc1ccc(O)cc1` [4′-hydroxyphenylacetic acid], the “% control response” value in assay [1] (compound 2 μM) is 102.00% and 107.00%; in assay [1] (compound 20 μM), 74.00% and 81.00%.

Take `O=C(O)C(O)c1ccc(O)cc1` (stereo not drawn) [4′hydroxymandelic acid]: the “% control response” value in assay [1] (compound 2 μM) is 103.00%; in assay [1] (compound 20 μM), 86.00%.

On to `O=C(O)/C=C/c1ccc(O)c(O)c1` [Caffeic acid], for which the activity at 2 µM in assay [1] (compound 2 μM) was 104%. Also, the activity at 20 µM in assay [1] (compound 20 μM) is 105%.

For the compound `O=C(O)CCc1ccc(O)c(O)c1` [Dihydrocaffeic acid], the activity at 2 µM in assay [1] (compound 2 μM) amounted to 110%. Besides, in assay [1] (compound 20 μM), the activity at 20 µM worked out at 83%.

For the compound `COc1cc(CCC(=O)O)ccc1O` [Dihydroferulic acid], the activity at 2 µM in assay [1] (compound 2 μM) amounted to 106%. Also, in assay [1] (compound 20 μM), the activity at 20 µM is 103%.

Turning to `O=c1oc2c(O)c(O)cc3c(=O)oc4c(O)c(O)cc1c4c23` [Ellagic acid, reference compound], in assay [1] (compound 2 μM), the activity at 2 µM amounted to 93.4%. The activity at 20 µM in assay [1] (compound 20 μM) was 101%. Further, the “ability to amplify glucose-stimulated insulin secretion” value in assay [1] (blind screening, 2 and 20 μM) is reported as “not active”.

`COc1cc(/C=C/C(=O)O)ccc1O` [Ferulic acid]: the activity at 2 µM in assay [1] (compound 2 μM) amounted to 109%. In addition, in assay [1] (compound 20 μM), the activity at 20 µM is 115%.

Consider `COc1cc(/C=C/C(=O)NCC(=O)O)ccc1O` [Feruloylglycine], for which the activity at 2 µM in assay [1] (compound 2 μM) came out at 102%. Also, the activity at 20 µM in assay [1] (compound 20 μM) came to 102%.

For the compound `COc1cc(CC(=O)O)ccc1O` [Homovanillic acid], the activity at 2 µM in assay [1] (compound 2 μM) was 93%. Moreover, the activity at 20 µM in assay [1] (compound 20 μM) stood at 83%.

For the compound `COc1ccc(/C=C/C(=O)NCC(=O)O)cc1O` [Isoferuloylglycine], the activity at 2 µM in assay [1] (compound 2 μM) amounted to 80%. In addition, the activity at 20 µM in assay [1] (compound 20 μM) is 82%.

On to `O=C(O)[C@H]1O[C@@H](Oc2c(-c3ccc(O)cc3)oc3cc(O)cc(O)c3c2=O)[C@H](O)[C@@H](O)[C@@H]1O` [Kaempferol-3 -glucuronide], for which the “% control response” value in assay [1] (compound 2 μM) is 111.00%; in assay [1] (compound 20 μM), 104.00%.

`CC(=O)N[C@@H](CS)C(=O)O` [N-acetyl cysteine]: the “prevention of H2O2-induced insulin secretion impairment” value (“prevention” below) in assay [2] is on record as “not”.

With `Oc1cc(O)cc(O)c1` [Phloroglucinol], the activity at 2 µM in assay [1] (compound 2 μM) is 100%. Further, the activity at 20 µM in assay [1] (compound 20 μM) amounted to 105%.

Regarding `O=C(O)c1ccc(O)c(O)c1` [Protocatechuic acid], in assay [1] (compound 2 μM), the activity at 2 µM worked out at 108%. The activity at 20 µM in assay [1] (compound 20 μM) is 92%.

With `Oc1ccccc1O` [Pyrocatechol], the activity at 2 µM in assay [1] (compound 2 μM) was 87%. Moreover, in assay [1] (compound 20 μM), the activity at 20 µM was found to be 96%.

Turning to `Oc1cccc(O)c1O` [Pyrogallol], the activity at 2 µM in assay [1] (compound 2 μM) is 93%. In assay [1] (compound 20 μM), the activity at 20 µM turned out to be 98%.

Take `O=c1c(O)c(-c2ccc(O)c(O)c2)oc2cc(O)cc(O)c12` [Quercetin, reference compound]: in assay [1] (compound 2 μM), the activity at 2 µM turned out to be 93.8%. Moreover, the activity at 20 µM in assay [1] (compound 20 μM) worked out at 237%. Besides, in assay [2], the “prevention” value is reported as “able to prevent H2O2-induced insulin secretion impairment”.

Regarding `O=C(O)[C@H]1O[C@@H](Oc2c(-c3ccc(O)c(O)c3)oc3cc(O)cc(O)c3c2=O)[C@H](O)[C@@H](O)[C@@H]1O` [Quercetin-3 -glucuronide], the “% control response” value is reported as 89.00% in assay [1] (compound 2 μM) and 103.00% in assay [1] (compound 20 μM).

For the compound `OCCc1ccc(O)cc1` [Tyrosol], the activity at 2 µM in assay [1] (compound 2 μM) was found to be 86%. Also, in assay [1] (compound 20 μM), the activity at 20 µM amounted to 89%.

Consider `COc1ccc(Cl)cc1C(=O)NCCc1ccc(S(=O)(=O)NC(=O)NC2CCCCC2)cc1` [glibenclamide, reference compound], for which, in assay [3], the “increase of secretion as compared to low-glucose condition” value is recorded as 4/6.

As to `Oc1ccc(C=Cc2cc(O)cc(O)c2)cc1` [resveratrol], in assay [2], the “prevention” value is reported as “not”.
